Test results taken from patent US9187472B2 (AbbVie Inc., priority 2012, dated 2015).

Experiments:
[1] = biological target: NAMPT (Homo sapiens, UniProt P43490); assay: TR-FRET Binding Assay of NAMPT with PRPP; conditions: with 200 μM PRPP and 2.5 mM ATP; 2 nM NAMPT, 2 nM probe, 16 hours equilibration
Summary of the method: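 Run in the presence of substrates (200 μM PRPP, 2.5 mM ATP) with final 2 nM NAMPT, 2 nM probe, 1 nM Tb-anti-His antibody and 2% DMSO. Mixtures equilibrated 16 h before TR-FRET measurement so test compounds could be enzymatically modified.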

[2] = tested on: PC3 cells; assay: NAMPT Cell Proliferation Assay; type: cell-based; conditions: Homo sapiens, PC-3, 120 h, 5 days incubation, cell viability by Cell Titer Glo
Summary of the method: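 PC3 cells were plated at 500 cells/well in RPMI with 10% heat-inactivated FBS, left to attach overnight, then given compounds in 10-fold dilutions from 10 μM to 1×10^−5 μM. After 5 days at 37° C and 5% CO2, viability was read by luminescence and IC50s came from sigmoidal fits of percent inhibition.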

[3] = biological target: NAMPT (human, recombinant, C-terminally His-tagged) (Homo sapiens, UniProt P43490); assay: Time-Resolved Fluorescence Resonance Energy Transfer (TR-FRET) Binding Assay of NAMPT; conditions: without substrates; 6.8 nM NAMPT, 200 nM probe, 3 hours equilibration
Summary of the method: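 Probe displacement by compound was measured with 6.8 nM NAMPT, 200 nM Oregon Green 488-conjugated nicotinamide-competitive inhibitor probe and 1 nM Tb-anti-His antibody in 50 mM HEPES pH 7.5, 100 mM NaCl, 10 mM MgCl2, 1 mM DTT, 1% glycerol, 2% DMSO (final). After 3 h at room temperature, TR-FRET was read; IC50 from four-parameter logistic fit.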

Sequence of NAMPT (P43490 whole entry): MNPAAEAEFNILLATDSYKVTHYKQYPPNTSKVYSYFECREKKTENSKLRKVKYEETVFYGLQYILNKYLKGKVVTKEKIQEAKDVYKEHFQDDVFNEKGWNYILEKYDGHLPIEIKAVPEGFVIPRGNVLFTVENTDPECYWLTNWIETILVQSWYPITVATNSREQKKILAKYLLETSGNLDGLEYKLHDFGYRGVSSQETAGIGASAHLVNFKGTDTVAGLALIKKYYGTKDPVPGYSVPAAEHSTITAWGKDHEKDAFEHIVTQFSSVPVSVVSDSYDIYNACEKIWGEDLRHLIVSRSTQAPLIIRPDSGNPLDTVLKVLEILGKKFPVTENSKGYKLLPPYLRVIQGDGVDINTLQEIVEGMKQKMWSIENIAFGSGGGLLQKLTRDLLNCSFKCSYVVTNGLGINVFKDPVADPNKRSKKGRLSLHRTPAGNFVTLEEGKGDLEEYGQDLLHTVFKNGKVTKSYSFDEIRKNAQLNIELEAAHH
Sequence of NAMPT (human, recombinant, C-terminally His-tagged) (P43490 whole entry): as above

Compound	IC50 [1] [nM]	IC50 [2] [nM]	IC50 [3] [nM]
O=C(NCc1ccn2ccnc2c1)c1cnc(N2CC(COCc3ccccc3)OC2=O)s1 (stereo not drawn) [Example 218, 2-{5-[(benzyloxy)methyl]-2-oxo-1,3-oxazolidin-3-yl}-N-(imidazo[1,2-a]pyridin-7-ylmethyl)-1,3-thiazole-5-carboxamide]	0.169	71.1	123
O=C(NCc1ccc2nccn2c1)c1ccc(-c2cnn(CC3CCC3)c2)s1 [Example 178, 5-[1-(cyclobutylmethyl)-1H-pyrazol-4-yl]-N-(imidazo[1,2-a]pyridin-6-ylmethyl)thiophene-2-carboxamide]	0.169	1.85	14.3
O=C(NCCCCC1CCN(C(=O)c2ccccc2)CC1)Nc1ccn2ccnc2c1 [Example 270, 1-[4-(1-benzoylpiperidin-4-yl)butyl]-3-imidazo[1,2-a]pyridin-7-ylurea]	0.991	973	60.9
O=C(NCc1ccc2nccn2c1)c1ccc(C2=CCN(C(=O)CN3CCOCC3)CC2)cc1 [Example 92, N-(imidazo[1,2-a]pyridin-6-ylmethyl)-4-[1-(morpholin-4-ylacetyl)-1,2,3,6-tetrahydropyridin-4-yl]benzamide]	0.881	9.48	183
O=C(NCc1ccn2ccnc2c1)c1ccc(OC2CCN(C(=O)[C@H]3CCCO3)CC2)cc1 [Example 418, N-(imidazo[1,2-a]pyridin-7-ylmethyl)-4-({1-[(2R)-tetrahydrofuran-2-ylcarbonyl]piperidin-4-yl}oxy)benzamide]	0.233	866	4750
O=C(Nc1ccc(C(=O)NCC2CCOCC2)cc1)Nc1ccc2nccn2c1 [Example 22]	0.277	142	399
CC(C)Cn1cc(-c2ccc(C(=O)NCc3ccc4nccn4c3)o2)cn1 [Example 120, N-(imidazo[1,2-a]pyridin-6-ylmethyl)-5-[1-(2-methylpropyl)-1H-pyrazol-4-yl]furan-2-carboxamide]	0.367	90.8	73.9
O=C(NCc1ccn2ccnc2c1)c1ccc(-c2cnn(C[C@@H]3CCCO3)c2)s1 [Example 397, N-(imidazo[1,2-a]pyridin-7-ylmethyl)-5-{1-[(2S)-tetrahydrofuran-2-ylmethyl]-1H-pyrazol-4-yl}thiophene-2-carboxamide]	0.169	7.12	17.7
CC(C)(O)CC(=O)N1CCC(c2ccc(NC(=O)NCc3ccn4ccnc4c3)cc2)CC1 [Example 226, 1-{4-[1-(3-hydroxy-3-methylbutanoyl)piperidin-4-yl]phenyl}-3-(imidazo[1,2-a]pyridin-7-ylmethyl)urea]	0.608	7.26	113
O=C(NCc1ccn2ccnc2c1)c1cnc(N2CC(CO)OC2=O)s1 (stereo not drawn) [Example 251, 2-[5-(hydroxymethyl)-2-oxo-1,3-oxazolidin-3-yl]-N-(imidazo[1,2-a]pyridin-7-ylmethyl)-1,3-thiazole-5-carboxamide]	0.63	1840	2200
O=C(Nc1ccc(C(=O)NCc2ccccc2)cc1)Nc1ccc2nccn2c1 [Example 7, N-benzyl-4-[(imidazo[1,2-a]pyridin-6-ylcarbamoyl)amino]benzamide]	0.516	527	183
O=C(NCc1ccn2ccnc2c1)c1ccc(C2CCN(C(=O)[C@H]3CCCO3)C2)cc1 (stereo partly drawn) [Example 373, N-(imidazo[1,2-a]pyridin-7-ylmethyl)-4-{1-[(2R)-tetrahydrofuran-2-ylcarbonyl]pyrrolidin-3-yl}benzamide]	0.36	585	3040
O=C(NCc1ccn2ccnc2c1)c1ccc(C2CCN(C(=O)c3ccccc3)CC2)cc1 [Example 437, 4-(1-benzoylpiperidin-4-yl)-N-(imidazo[1,2-a]pyridin-7-ylmethyl)benzamide]	0.169	7.02	29.1

More lines, now with the values ahead:

IC50 [1] [nM]	IC50 [2] [nM]	IC50 [3] [nM]	Compound
1.29	88	568	O=C(NCc1ccn2ccnc2c1)c1ccc(C2CCN(C(=O)c3cccc(C(F)(F)F)c3)CC2)cc1 [Example 702, N-(imidazo[1,2-a]pyridin-7-ylmethyl)-4-{1-[3-(trifluoromethyl)benzoyl]piperidin-4-yl}benzamide]
0.802	633	735	O=C(NCc1ccn2ccnc2c1)c1cnc(C2CCN(c3ccccn3)CC2)s1 [Example 697, N-(imidazo[1,2-a]pyridin-7-ylmethyl)-2-[1-(pyridin-2-yl)piperidin-4-yl]-1,3-thiazole-5-carboxamide]
0.543	42.6	184	O=C(NCc1ccn2ccnc2c1)c1ccc(C2CN(C(=O)c3cccs3)C2)cc1 [Example 552, N-(imidazo[1,2-a]pyridin-7-ylmethyl)-4-[1-(thiophen-2-ylcarbonyl)azetidin-3-yl]benzamide]
0.799	189	1120	O=C(NCc1ccn2ccnc2c1)c1ccc(C2CCN(C(=O)C3CCCC3)C2)cc1 (stereo not drawn) [Example 583, 4-[1-(cyclopentylcarbonyl)pyrrolidin-3-yl]-N-(imidazo[1,2-a]pyridin-7-ylmethyl)benzamide]
0.471	5.9	21.3	CC(C)(C(=O)N1CCC(c2ccc(C(=O)NCc3ccn4ccnc4c3)cc2)C1)c1ccccc1 (stereo not drawn) [Example 732, N-(imidazo[1,2-a]pyridin-7-ylmethyl)-4-[1-(2-methyl-2-phenylpropanoyl)pyrrolidin-3-yl]benzamide]
0.325	28.5	297	O=C(NCc1ccn2ccnc2c1)c1ccc(C2CCN(C(=O)c3ccncc3)CC2)cc1 [Example 535, N-(imidazo[1,2-a]pyridin-7-ylmethyl)-4-[1-(pyridin-4-ylcarbonyl)piperidin-4-yl]benzamide]
0.581	6.36	61.5	N#Cc1ccc(C(=O)N2CCC(c3ccc(C(=O)NCc4ccn5ccnc5c4)s3)C2)cc1 (stereo not drawn) [Example 766, 5-[1-(4-cyanobenzoyl)pyrrolidin-3-yl]-N-(imidazo[1,2-a]pyridin-7-ylmethyl)thiophene-2-carboxamide]
0.734	189	666	O=C(NCc1ccn2ccnc2c1)c1ccc(C2CCN(C(=O)c3ccco3)C2)cc1 (stereo not drawn) [Example 590, 4-[1-(furan-2-ylcarbonyl)pyrrolidin-3-yl]-N-(imidazo[1,2-a]pyridin-7-ylmethyl)benzamide]
2.86	11.4	99.8	CC(C)C(=O)N1CCC(c2ccc(C(=O)NCc3cn4ccnc4cn3)cc2)CC1 [Example 811, N-(imidazo[1,2-a]pyrazin-6-ylmethyl)-4-[1-(2-methylpropanoyl)piperidin-4-yl]benzamide]
0.586	2.6	79.5	O=C(NCc1ccn2ccnc2c1)c1ccc(-c2cnn(CC3(F)CCOCC3)c2)o1 [Example 790, 5-{1-[(4-fluorotetrahydro-2H-pyran-4-yl)methyl]-1H-pyrazol-4-yl}-N-(imidazo[1,2-a]pyridin-7-ylmethyl)furan-2-carboxamide]
